One may read the IC50 as the concentration needed to halve the response being measured.

A value given as a limit tells only on which side of the number the result lay.

We go through 33 compounds from patent publication US20120264735A1 (priority 2009, published 2012).

The target of the assay is T1, c-Met kinase (recombinant c-Met) (Homo sapiens, UniProt P08581).
T1 construct: 0.27 nM recombinant c-Met
T1 sequence (P08581 25-1390): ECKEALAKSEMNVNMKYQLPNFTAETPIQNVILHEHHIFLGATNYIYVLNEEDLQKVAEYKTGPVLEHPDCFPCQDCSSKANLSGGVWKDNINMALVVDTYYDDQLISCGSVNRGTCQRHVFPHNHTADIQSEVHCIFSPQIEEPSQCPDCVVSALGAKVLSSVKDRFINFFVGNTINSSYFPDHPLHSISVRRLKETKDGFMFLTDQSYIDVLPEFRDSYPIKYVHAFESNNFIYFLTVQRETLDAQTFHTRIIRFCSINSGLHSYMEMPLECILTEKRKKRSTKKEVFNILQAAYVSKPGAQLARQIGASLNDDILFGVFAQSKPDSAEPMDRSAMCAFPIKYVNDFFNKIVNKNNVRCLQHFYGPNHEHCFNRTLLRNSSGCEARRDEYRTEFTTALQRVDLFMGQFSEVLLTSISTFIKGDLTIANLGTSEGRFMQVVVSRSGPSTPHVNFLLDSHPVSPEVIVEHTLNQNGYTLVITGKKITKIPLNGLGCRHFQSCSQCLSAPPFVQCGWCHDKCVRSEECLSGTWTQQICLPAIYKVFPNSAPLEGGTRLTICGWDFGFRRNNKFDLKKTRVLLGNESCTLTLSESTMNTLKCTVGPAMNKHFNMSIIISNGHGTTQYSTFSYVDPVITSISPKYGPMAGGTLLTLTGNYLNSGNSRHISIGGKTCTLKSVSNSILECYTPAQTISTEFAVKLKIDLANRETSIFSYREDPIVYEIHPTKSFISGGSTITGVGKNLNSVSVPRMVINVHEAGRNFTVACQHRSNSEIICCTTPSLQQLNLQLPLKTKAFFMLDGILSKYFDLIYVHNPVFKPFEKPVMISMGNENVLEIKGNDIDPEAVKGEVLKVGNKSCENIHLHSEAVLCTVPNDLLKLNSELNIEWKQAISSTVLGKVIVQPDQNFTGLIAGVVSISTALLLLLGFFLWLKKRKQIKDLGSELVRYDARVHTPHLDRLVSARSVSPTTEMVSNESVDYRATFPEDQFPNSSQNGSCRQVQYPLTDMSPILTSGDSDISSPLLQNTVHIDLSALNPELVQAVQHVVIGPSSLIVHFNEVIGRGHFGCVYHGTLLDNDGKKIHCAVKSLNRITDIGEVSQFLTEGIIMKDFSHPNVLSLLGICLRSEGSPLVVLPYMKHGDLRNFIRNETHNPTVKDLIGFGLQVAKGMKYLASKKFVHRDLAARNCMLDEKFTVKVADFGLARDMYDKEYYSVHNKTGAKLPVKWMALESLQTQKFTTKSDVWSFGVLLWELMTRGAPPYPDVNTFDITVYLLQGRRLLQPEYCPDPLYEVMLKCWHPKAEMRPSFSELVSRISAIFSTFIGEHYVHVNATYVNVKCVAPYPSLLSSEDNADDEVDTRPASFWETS
Nature of the assay: In vitro kinase assay I (homogeneous time-resolved fluorescence tyrosine kinase assay). The format is biochemical. The procedure, abridged:
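Biotinylated peptide (0.5 μM) phosphorylated by 0.2 nM recombinant c-Met with 50 μM MgATP, 60 min at room temperature, pH 7.4, 5% DMSO. EDTA stop; HTRF read with Eu-anti-phosphotyrosine antibody and streptavidin-APC. IC50 from 4-parameter logistic fit.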
For the compound `CCOC(=O)Nc1cccc(Cc2nn(-c3cc(F)cc(F)c3)ccc2=O)c1` [Example 11, ethyl (3-{[1-(3,5-difluorophenyl)-4-oxo-1,4-dihydropyridazin-3-yl]methyl}phenyl)carbamate], the IC50 is below 100 nM.

Regarding `Cn1cc(-n2ccc(=O)c(Cc3cccc(-c4ncc(-c5cccnc5)cn4)c3)n2)cn1` [Example 412, 1-(1-methyl-1H-pyrazol-4-yl)-3-[3-(5-pyridin-3-ylpyrimidin-2-yl)benzyl]pyridazin-4(1H)-one], the IC50 was below 100 nM.

As to `CC(c1cccc(-c2ncc(C3CC3)cn2)c1)c1nn(-c2cnn(C)c2)ccc1=O` (single isomer, unassigned) [Example 405, 3-{(1S or R)-1-[3-(5-cyclopropyl-pyrimidin-2-yl)phenyl]ethyl}-1-(1-methyl-1H-pyrazol-4-yl)pyridazin-4(1H)-one], the half-maximal inhibitory concentration (IC50) is below 100 nM.

With `CCOC(=O)c1cnc(-c2cccc(Cc3nn(-c4cnn(C)c4)ccc3=O)c2)o1` [Example 675, ethyl 2-(3-{[1-(1-methyl-1H-pyrazol-4-yl)-4-oxo-1,4-dihydropyridazin-3-yl]methyl}phenyl)-1,3-oxazole-5-carboxylate], the IC50 fell in the range of 100 to 1000 nM.

On to `CC(C)COC(=O)Nc1cccc(Cc2nn(-c3cc(F)cc(F)c3)ccc2=O)c1` [Example 17, 2-methylpropyl (3-{[1-(3,5-difluorophenyl)-4-oxo-1,4-dihydropyridazin-3-yl]methyl}phenyl)carbamate], for which the concentration for half-maximal inhibition (IC50) was below 100 nM.

For `Cn1cc(-n2ccc(=O)c(Cc3cccc(-c4ncc(OCC5CC5)cn4)c3)n2)cn1` [Example 278, 3-{3-[5-(cyclopropylmethoxy)pyrimidin-2-yl]benzyl}-1-(1-methyl-1H-pyrazol-4-yl)pyridazin-4(1H)-one], the IC50 was below 100 nM.

Take `CC(c1cccc(-c2ncc(OCC(C)(C)O)cn2)c1)c1nn(-c2ccc(F)c(F)c2)ccc1=O` (single isomer, unassigned) [Example 249, 1-(3,4-difluorophenyl)-3-[(1S or R)-1-{3-[5-(2-hydroxy-2-methylpropoxy)pyrimidin-2-yl]phenyl}ethyl]pyridazin-4(1H)-one]: the IC50 lay within 100 to 1000 nM.

Consider `CC(C)COC(=O)Nc1cccc(Cc2nn(-c3ccn(C)n3)ccc2=O)c1` [Example 26, 2-methylpropyl (3-{[1-(1-methyl-1H-pyrazol-3-yl)-4-oxo-1,4-dihydropyridazin-3-yl]methyl}phenyl)carbamate], for which the IC50 is below 100 nM.

Take `CCOc1cnc(-c2ccc(F)c(Cc3nn(-c4cnn(C)c4)ccc3=O)c2)nc1` [Example 118, 3-[5-(5-ethoxypyrimidin-2-yl)-2-fluorobenzyl]-1-(1-methyl-1H-pyrazol-4-yl)pyridazin-4(1H)-one]: the IC50 was below 100 nM.

On to `N#Cc1cccc(-n2ccc(=O)c(Cc3cccc(NC(=O)OCC4CCOCC4)c3)n2)c1` [Example 579, tetrahydro-2H-pyran-4-ylmethyl (3-{[1-(3-cyanophenyl)-4-oxo-1,4-dihydropyridazin-3-yl]methyl}phenyl)carbamate], for which the IC50 is below 100 nM.

On to `Cn1cc(-n2ccc(=O)c(Cc3cccc(-c4ncc(OCC5CCOCC5)cn4)c3)n2)cn1` [Example 262, 1-(1-methyl-1H-pyrazol-4-yl)-3-{3-[5-(tetrahydro-2H-pyran-4-ylmethoxy)pyrimidin-2-yl]benzyl}pyridazin-4(1H)-one], for which the IC50 was below 100 nM.

For the compound `CCCC(c1cccc(-c2ncc(OCC)cn2)c1)c1nn(-c2cnn(C)c2)ccc1=O` (single isomer, unassigned) [Example 208, 3-{(1R or S)-1-[3-(5-ethoxypyrimidin-2-yl)phenyl]butyl}-1-(1-methyl-1H-pyrazol-4-yl)pyridazin-4(1H)-one], the IC50 is below 100 nM.

In the case of `Cn1cc(-n2ccc(=O)c(Cc3cccc(-c4ncc(OCCO)cn4)c3)n2)cn1` [Example 264, 3-{3-[5-(2-hydroxyethoxy)pyrimidin-2-yl]benzyl}-1-(1-methyl-1H-pyrazol-4-yl)pyridazin-4(1H)-one], the IC50 is below 100 nM.

In the case of `O=c1ccn(-c2ccc(F)c(F)c2)nc1Cc1cccc(-c2ncc(OC3CCOC3)cn2)c1` (single isomer, unassigned) [Example 349, 1-(3,4-difluorophenyl)-3-(3-{5-[(3R or S)-tetrahydrofuran-3-yloxy]pyrimidin-2-yl}benzyl)pyridazin-4(1H)-one], the IC50 was below 100 nM.

With `Cn1cc(-n2ccc(=O)c(Cc3ccc4nn(C)cc4c3)n2)cn1` [Example 49, 3-[(2-methyl-2H-indazol-5-yl)methyl]-1-(1-methyl-1H-pyrazol-4-yl)pyridazin-4(1H)-one], the 50% inhibitory concentration (IC50) was 1000 to 3000 nM.

As to `CCn1cc(-n2ccc(=O)c(C(C)c3cccc(-c4ncc(OCCN5CCOCC5)cn4)c3)n2)cn1` (single isomer, unassigned) [Example 300, 1-(1-ethyl-1H-pyrazol-4-yl)-3-[(1R or S)-1-{3-[5-(2-morpholin-4-ylethoxy)pyrimidin-2-yl]phenyl}ethyl]pyridazin-4(1H)-one], the half-inhibitory concentration (IC50) was below 100 nM.

Consider `Cn1cc(-n2ccc(=O)c(Cc3cccc(-c4ncc(C(=O)NCCN5CCOCC5)cn4)c3)n2)cn1` [Example 477, 2-(3-{[1-(1-methyl-1H-pyrazol-4-yl)-4-oxo-1,4-dihydro-pyridazin-3-yl]methyl}phenyl)-N-(2-morpholin-4-ylethyl)pyrimidine-5-carboxamide], for which the IC50 is below 100 nM.

For `C[C@H](O)[C@H](C)Oc1cnc(-c2cccc(Cc3nn(-c4cnn(C)c4)ccc3=O)c2)nc1` (single isomer, unassigned) [Example 375], the IC50 was below 100 nM.

In the case of `CCn1cc(-n2ccc(=O)c(Cc3cccc(NC(=O)OCCN4CCOCC4)c3)n2)cn1` [Example 115, 2-morpholin-4-ylethyl (3-{[1-(1-ethyl-1H-pyrazol-4-yl)-4-oxo-1,4-dihydropyridazin-3-yl]methyl}phenyl)carbamate], the IC50 is below 100 nM.

With `CCOc1cnc(-c2cccc(Cc3nn(-c4ccc(C#N)c(F)c4)ccc3=O)c2)nc1` [Example 148, 4-{3-[3-(5-ethoxypyrimidin-2-yl)benzyl]-4-oxopyridazin-1(4H)-yl}-2-fluorobenzonitrile], the IC50 was below 100 nM.

For the compound `CCn1cc(-n2ccc(=O)c(C(C)c3cccc(-c4ncc(OCc5ccccc5)cn4)c3)n2)cn1` (single isomer, unassigned) [Example 228, 3-((1S or R)-1-{3-[5-(benzyloxy)pyrimidin-2-yl]phenyl}ethyl)-1-(1-ethyl-1H-pyrazol-4-yl)pyridazin-4(1H)-one], the IC50 was in the range of 100 to 1000 nM.

With `CCCn1cnc(-c2cccc(Cc3nn(-c4cccc(C(N)=O)c4)ccc3=O)c2)n1` [Example 735, 3-{4-oxo-3-[3-(1-propyl-1H-1,2,4-triazol-3-yl)benzyl]pyridazin-1(4H)-yl}benzamide], the IC50 is 100 to 1000 nM.

`CC(c1cccc(-c2ncc(O[C@@H]3CCNC[C@H]3F)cn2)c1)c1nn(-c2cnn(C)c2)ccc1=O` (single isomer, unassigned) [Example 341, 3-{(1R or S)-1-[3-(5-{[(3R or S,4R or S)-3-Fluoropiperidin-4-yl]oxy}pyrimidin-2-yl)phenyl]ethyl}-1-(1-methyl-1H-pyrazol-4-yl)pyridazin-4(1H)-one]: the IC50 is below 100 nM.

In the case of `CC(c1cccc(-c2ncc(OC3CCOCC3)cn2)c1)c1nn(-c2cnn(C)c2)ccc1=O` (single isomer, unassigned) [Example 211, 1-(1-methyl-1H-pyrazol-4-yl)-3-[(1S or R)-1-{3-[5-(tetrahydro-2H-pyran-4-yloxy)pyrimidin-2-yl]phenyl}ethyl]pyridazin-4(1H)-one], the IC50 is below 100 nM.

Turning to `O=C(Nc1cccc(Cc2nn(-c3cc(F)cc(F)c3)ccc2=O)c1)OCCCN1CCOCC1` [Example 521, 3-morpholin-4-ylpropyl (3-{[1-(3,5-difluorophenyl)-4-oxo-1,4-dihydropyridazin-3-yl]methyl}phenyl)carbamate], the IC50 is below 100 nM.

For `Cn1cc(-n2ccc(=O)c(Cc3cccc(-c4ncc(-c5cnc(N)nc5)cn4)c3)n2)cn1` [Example 417, 3-[3-(2′-amino-5,5′-bipyrimidin-2-yl)benzyl]-1-(1-methyl-1H-pyrazol-4-yl)pyridazin-4(1H)-one], the IC50 was below 100 nM.

Consider `CCNc1cnc(-c2cccc(Cc3nn(-c4cnn(C)c4)ccc3=O)c2)nc1` [Example 452], for which the IC50 was below 100 nM.

In the case of `CCOc1cnc(-c2cccc(Cc3nn(-c4cnn(C)c4F)cc(F)c3=O)c2)nc1` [compound 752], the IC50 was below 100 nM.

On to `COC(=O)c1cnc(-c2cccc(Cc3nn(-c4cnn(C)c4)ccc3=O)c2)nc1` [Example 15, methyl 2-(3-{[1-(1-methyl-1H-pyrazol-4-yl)-4-oxo-1,4-dihydropyridazin-3-yl]methyl}phenyl)pyrimidine-5-carboxylate], for which the concentration for half-maximal inhibition (IC50) is below 100 nM.

As for `COCCCOc1cnc(-c2cccc(Cc3nn(-c4cc(F)c(F)c(F)c4)ccc3=O)c2)nc1` [Example 324, 3-{3-[5-(3-methoxypropoxy)pyrimidin-2-yl]benzyl}-1-(3,4,5-trifluorophenyl)pyridazin-4(1H)-one], the IC50 was below 100 nM.

For `Cn1cc(-n2ccc(=O)c(Cc3ccc4ncc(OCC5CCOC5)cc4c3)n2)cn1` (racemic) [Example 64, rac-1-(1-methyl-1H-pyrazol-4-yl)-3-{[3-(tetrahydrofuran-3-ylmethoxy)quinolin-6-yl]methyl}pyridazin-4(1H)-one], the IC50 is below 100 nM.

Take `Cc1ccnc(-c2cccc(C(C)c3nn(-c4cnn(C)c4)ccc3=O)c2)n1` (single isomer, unassigned) [Example 691, 1-(1-methyl-1H-pyrazol-4-yl)-3-{(1R or S)-1-[3-(4-methylpyrimidin-2-yl)phenyl]ethyl} pyridazin-4(1H)-one]: the IC50 was below 100 nM.

Turning to `O=C(Nc1cccc(Cc2nn(-c3cc(F)c(F)c(F)c3)ccc2=O)c1)OCCN1CCS(=O)(=O)CC1` [Example 515, 2-(1,1-dioxidothio-morpholin-4-yl)ethyl (3-{[4-oxo-1-(3,4,5-trifluorophenyl)-1,4-dihydropyridazin-3-yl]methyl}phenyl)carbamate], the IC50 is below 100 nM.
